Source: PubChem BioAssay AID248 (DTP/NCI, 2004)
Several values for one entry are separate records, joined by “and”; a condition that tells them apart may be missing. Equal values may be shown once. Inconclusive results and toxic doses are left out.

Test system: L1210 leukemia ip in BDF1 mice, survival T/C
Assay: NCI In Vivo Anticancer Drug Screen. Data for tumor model L1210 Leukemia (intraperitoneal) in B6D2F1 (BDF1) mice
Details: endpoint: mean survival time, higher = longer survival
In short: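 Transplanted-tumor mice were given test agent; controls received vehicle only. Survival readings from the two groups were divided (treated over control).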

[1] = dose: 100.0 mg/kg/injection, schedule: Q01DX001 (ip), vehicle: saline
[2] = dose: 200.0 mg/kg/injection, schedule: Q01DX001 (ip), vehicle: saline
[3] = dose: 400.0 mg/kg/injection, schedule: Q01DX001 (ip), vehicle: saline
[4] = dose: 100.0 mg/kg/injection, schedule: Q01DX009 (ip), vehicle: Klucel (hydroxypropylcellulose) (HPC)
[5] = dose: 200.0 mg/kg/injection, schedule: Q01DX009 (ip), vehicle: Klucel (hydroxypropylcellulose) (HPC)
[6] = dose: 400.0 mg/kg/injection, schedule: Q01DX009 (ip), vehicle: Klucel (hydroxypropylcellulose) (HPC)
[7] = dose: 100.0 mg/kg/injection, schedule: Q04DX002 (ip), vehicle: Klucel (hydroxypropylcellulose) (HPC)
[8] = dose: 200.0 mg/kg/injection, schedule: Q04DX002 (ip), vehicle: Klucel (hydroxypropylcellulose) (HPC)
[9] = dose: 100.0 mg/kg/injection, schedule: Q04DX003 (ip), vehicle: saline with Tween-80
[10] = dose: 200.0 mg/kg/injection, schedule: Q04DX003 (ip), vehicle: saline with Tween-80
[11] = dose: 400.0 mg/kg/injection, schedule: Q04DX003 (ip), vehicle: saline with Tween-80
[12] = dose: 25.0 mg/kg/injection, schedule: Q04DX003 (ip), vehicle: saline
[13] = dose: 50.0 mg/kg/injection, schedule: Q04DX003 (ip), vehicle: saline
[14] = dose: 100.0 mg/kg/injection, schedule: Q04DX003 (ip), vehicle: saline
[15] = dose: 100.0 mg/kg/injection, schedule: Q04DX003 (ip), vehicle: Klucel (hydroxypropylcellulose) (HPC)
[16] = dose: 200.0 mg/kg/injection, schedule: Q04DX003 (ip), vehicle: Klucel (hydroxypropylcellulose) (HPC)
[17] = dose: 400.0 mg/kg/injection, schedule: Q04DX003 (ip), vehicle: Klucel (hydroxypropylcellulose) (HPC)
[18] = dose: 50.0 mg/kg/injection, schedule: Q04DX002 (ip), vehicle: saline with Tween-80
[19] = dose: 100.0 mg/kg/injection, schedule: Q04DX002 (ip), vehicle: saline with Tween-80
[20] = dose: 200.0 mg/kg/injection, schedule: Q04DX002 (ip), vehicle: saline with Tween-80
[21] = dose: 100.0 mg/kg/injection, schedule: Q01DX001 (ip), vehicle: Klucel (hydroxypropylcellulose) (HPC)
[22] = dose: 200.0 mg/kg/injection, schedule: Q01DX001 (ip), vehicle: Klucel (hydroxypropylcellulose) (HPC)
[23] = dose: 400.0 mg/kg/injection, schedule: Q01DX001 (ip), vehicle: Klucel (hydroxypropylcellulose) (HPC)
[24] = dose: 25.0 mg/kg/injection, schedule: Q01DX009 (ip), vehicle: saline
[25] = dose: 50.0 mg/kg/injection, schedule: Q01DX009 (ip), vehicle: saline
[26] = dose: 12.5 mg/kg/injection, schedule: Q01DX009 (ip), vehicle: saline

CC(Cl)CNC(C)C (centres undefined)
T/C [1]: 103 % of control
T/C [2]: 92 % of control
T/C [3]: 103 % of control

Cc1nccnc1Sc1ccc2ccccc2c1
T/C [4]: 95 % of control
T/C [5]: 92 % of control
T/C [6]: 90 % of control

O=C(O)c1cc(F)ccc1F
T/C [7]: 97 % of control
T/C [8]: 108 % of control

O=[N+]([O-])c1ccc(OCc2ccccc2)cc1
T/C [9]: 96 % of control
T/C [10]: 92 % of control
T/C [11]: 94 % of control

CCOC(C(=O)OC1CCN(C)CC1)(c1ccccc1)c1ccccc1
T/C [12]: 97 % of control
T/C [13]: 96 % of control
T/C [9]: 93 % of control
T/C [14]: 97 % of control

COc1ccc(OC)c(NC(=O)Nc2ccccc2C(N)=O)c1
T/C [15]: 97 % of control
T/C [16]: 95 % of control
T/C [17]: 93 % of control

CC(C)=NN
T/C [1]: 105 % of control
T/C [2]: 98 % of control
T/C [3]: 100 % of control

CCCCc1c(N)nc(N)nc1N
T/C (dose: 75.0 mg/kg/injection, schedule: Q01DX001 (ip), vehicle: saline with Tween-80): 103 % of control

Cn1nc(C#N)c(C#N)c1NC(=O)C(C)(C)C
T/C [18]: 92 % of control
T/C [19]: 103 % of control
T/C [20]: 106 % of control

Cc1cccc(NC(=O)COc2cc(Cl)c(Cl)cc2Cl)c1C
T/C [4]: 98 % of control
T/C [5]: 93 % of control
T/C [6]: 101 % of control

COc1ccc(/C=N\NC(=O)CCCCC(=O)N/N=C\c2ccc(OC)cc2)cc1
T/C [21]: 106 % of control
T/C [22]: 98 % of control
T/C [23]: 91 % of control

CC1OC2COC(C)OC2C(C(O)COC(c2ccccc2)(c2ccccc2)c2ccccc2)O1 (centres undefined)
T/C [4]: 93 % of control
T/C [15]: 98 % of control
T/C [5]: 95 % of control
T/C [16]: 97 % of control
T/C [6]: 101 % of control
T/C [17]: 95 % of control

CC(C)/C=N/N=C(N)N
T/C (dose: 120.0 mg/kg/injection, schedule: Q01DX Z (oral), vehicle: saline): 113 % of control
T/C (dose: 240.0 mg/kg/injection, schedule: Q01DX Z (oral), vehicle: saline): 104 % of control

Nc1ncnc2c1c(C1=NCCN1)cn2C1OC(CO)C(O)C1O (centres undefined)
T/C [24]: 179 % of control
T/C [25]: 155 % of control and 230 % of control
T/C (dose: 200.0 mg/kg/injection, schedule: Q01DX005 (ip), vehicle: saline): 105 % of control

NC1CCC(CC2CC3CCC2C3)CC1 (centres undefined)
T/C [26]: 98 % of control
T/C [24]: 91 % of control
T/C [12]: 100 % of control
T/C [25]: 100 % of control
T/C [13]: 96 % of control
T/C (dose: 100.0 mg/kg/injection, schedule: Q01DX009 (ip), vehicle: saline): 90 % of control
T/C [14]: 96 % of control

O=C(Nc1ccccn1)Nc1cc(C(F)(F)F)ccc1Cl
T/C [21]: 98 % of control
T/C [4]: 95 % of control and 90 % of control
T/C [7]: 95 % of control and 103 % of control
T/C [15]: 108 % of control
T/C [22]: 91 % of control
T/C [5]: 92 % of control
T/C [8]: 98 % of control and 103 % of control
T/C [16]: 97 % of control
T/C [23]: 98 % of control
T/C [6]: 95 % of control
T/C (dose: 400.0 mg/kg/injection, schedule: Q04DX002 (ip), vehicle: Klucel (hydroxypropylcellulose) (HPC)): 93 % of control and 97 % of control
T/C [17]: 96 % of control

CCCCCCCCC1NC1CCCCCCCC (centres undefined)
T/C (dose: 25.0 mg/kg/injection, schedule: Q04DX002 (ip), vehicle: saline with Tween-80): 98 % of control
T/C [18]: 88 % of control
T/C (dose: 100.0 mg/kg/injection, schedule: Q04DX002 (ip), vehicle: other): 100 % of control
T/C [19]: 100 % of control
T/C (dose: 200.0 mg/kg/injection, schedule: Q04DX002 (ip), vehicle: other): 96 % of control

CCOC(=O)N1Cc2cc3ccccc3nc2C1C1OC(CC)(C(=O)OCC)C1=O (centres undefined)
T/C (dose: 10.0 mg/kg/injection, schedule: Q07DX002 (ip), vehicle: alcohol): 96 % of control
T/C (dose: 20.0 mg/kg/injection, schedule: Q07DX002 (ip), vehicle: alcohol): 105 % of control
T/C (dose: 40.0 mg/kg/injection, schedule: Q07DX002 (ip), vehicle: alcohol): 89 % of control
T/C (dose: 80.0 mg/kg/injection, schedule: Q07DX002 (ip), vehicle: alcohol): 105 % of control

Cc1cc(C(=O)C[n+]2ccccc2)c(CN2C(=O)c3ccccc3C2=O)c(=O)n1C
T/C (dose: 100.0 mg/kg/injection, schedule: Q01DX001 (ip), vehicle: water): 102 % of control

C=C(C)COc1cc(C=NCCCC)c(C)cc1C
T/C [9]: 96 % of control
T/C [10]: 102 % of control
T/C [11]: 96 % of control

CCCCCCN(CCCCCC)CCCCCC
T/C (dose: 8.0 mg/kg/injection, schedule: Q01DX015 (ip), vehicle: carboxymethylcellulose (CMC)): 97 % of control
T/C (dose: 16.0 mg/kg/injection, schedule: Q01DX015 (ip), vehicle: carboxymethylcellulose (CMC)): 100 % of control
T/C (dose: 32.0 mg/kg/injection, schedule: Q01DX015 (ip), vehicle: carboxymethylcellulose (CMC)): 102 % of control
T/C (dose: 64.0 mg/kg/injection, schedule: Q01DX015 (ip), vehicle: carboxymethylcellulose (CMC)): 96 % of control
T/C [1]: 97 % of control
T/C (dose: 128.0 mg/kg/injection, schedule: Q01DX015 (ip), vehicle: carboxymethylcellulose (CMC)): 97 % of control
T/C [2]: 106 % of control
T/C [3]: 100 % of control

CC1(C2C3OC(=O)C2C2(O)CC4OC45C(=O)OC3C25C)CO1 (centres undefined)
T/C (dose: 25.0 mg/kg/injection, schedule: Q01DX009 (ip), vehicle: Klucel (hydroxypropylcellulose) (HPC)): 92 % of control
T/C (dose: 50.0 mg/kg/injection, schedule: Q01DX009 (ip), vehicle: Klucel (hydroxypropylcellulose) (HPC)): 104 % of control
T/C [4]: 95 % of control

Cc1cccc(CO)c1NC(=O)NCCCl
T/C [15]: 99 % of control
T/C [16]: 110 % of control
T/C [17]: 103 % of control

C=CCc1ccc(OC(=O)Nc2ccc(C(=O)OCC)cc2)c(OC)c1
T/C [4]: 90 % of control
T/C [5]: 90 % of control

[Cu+2].[NH-]C(CC(N)=O)C(=O)O.[NH-]C(CC(N)=O)C(=O)O (centres undefined)
T/C [26]: 107 % of control
T/C (dose: 12.5 mg/kg/injection, schedule: Q04DX003 (ip), vehicle: saline): 92 % of control
T/C [24]: 98 % of control
T/C [12]: 94 % of control
T/C [13]: 87 % of control

Cc1cc(Cl)cc(Cl)c1OCC(N)=O
T/C [19]: 94 % of control
T/C [20]: 94 % of control
T/C (dose: 400.0 mg/kg/injection, schedule: Q04DX002 (ip), vehicle: saline with Tween-80): 94 % of control

C1CCC(N=C(NC2CCCCC2)OC2CCCCC2)CC1
T/C (dose: 11.1 mg/kg/injection, schedule: Q01DX Z (ip), vehicle: methylcellulose (MC)): 97 % of control
T/C (dose: 16.6 mg/kg/injection, schedule: Q01DX Z (ip), vehicle: methylcellulose (MC)): 89 % of control
T/C (dose: 25.0 mg/kg/injection, schedule: Q01DX Z (ip), vehicle: methylcellulose (MC)): 101 % of control

C/C(=N\NS(C)(=O)=O)C(C)(C)C
T/C (dose: 75.0 mg/kg/injection, schedule: Q01DX001 (ip), vehicle: other): 103 % of control
T/C (dose: 150.0 mg/kg/injection, schedule: Q01DX001 (ip), vehicle: other): 103 % of control
T/C (dose: 300.0 mg/kg/injection, schedule: Q01DX001 (ip), vehicle: other): 97 % of control

Nc1ccc2c(c1)/C(=N/O)c1ccccc1-2
T/C (dose: 100.0 mg/kg/injection, schedule: Q01DX001 (ip), vehicle: carboxymethylcellulose (CMC)): 105 % of control
T/C (dose: 200.0 mg/kg/injection, schedule: Q01DX001 (ip), vehicle: carboxymethylcellulose (CMC)): 97 % of control
T/C (dose: 400.0 mg/kg/injection, schedule: Q01DX001 (ip), vehicle: carboxymethylcellulose (CMC)): 100 % of control

COc1ccccc1C(=O)C=C(C(F)(F)F)C(F)(F)F
T/C [9]: 95 % of control
T/C [10]: 97 % of control
